Patent US10626112B2, “Heterocyclic sulfonamide derivative and medicine comprising same” (EA PHARMA CO., LTD., priority 2014, dated 2020)

The compounds below were run against human TRPA1 (Homo sapiens (Human), UniProt O75762) (assay: Measurement of TRPA1 antagonist activity (2): as (1), different lot of human TRPA1 expression plasmid). Conditions: 293T cells transfected with human TRPA1, allylisothiocyanate 20 μM stimulation, calcium fluorescence, read-out: hTRPA1 IC50.
Type: cell-based
Description: Human embryonic kidney-derived 293T cells were cultured in Dulbecco's Modified Eagle Medium containing 10% fetal bovine serum, 10 unit penicillin, and 10 μg streptomycin, plated on a petri dish having a diameter of 10 cm at 3×10^6 cells, and cultured for 24 hr in a CO2 incubator. A reduced serum medium (manufactured by Invitrogen, trade name: OPTI-MEM, 600 μL), a gene transfer reagent (manufactured by Mirus Bio, trade name: Mirus TransIT-293, 18 μL), and human TRPA1 expression plasmid (6 μg) were mixed, the total amount of the mixture was added to the cells on the petri dish to allow for gene transfer. The cells were recovered about for 8 hr later, plated on a poly-D-lysine coated 384 well black/clear bottom plate at 12,000 cells/well, and cultured overnight.
Measurement of Intracellular Calcium Increase
The 384 well plate was recovered, and the medium was removed. A calcium-bonded fluorescent indicator (manufactured by Molecular Device, trade name: Calcium4 Assay Kit, 38 μL) dissolved in assay buffer (1×HBSS, 20 mM HEPES, pH 7.2) was added, and the cells were stained in a CO2 incubator for 1 hr. The cells were taken out at room temperature, stood for not less than 15 min, a test substance (10 μL) was added by a platereader FDSS7000 (Hamamatsu Photonics K.K.) equipped with a 384ch dispenser. After 10 min, allylisothiocyanate (12 μL) was further added at a final concentration of 20 μM, and changes in the relative fluorescence intensity after addition of allylisothiocyanate were measured for 5 min.
Test Substance Preparation
The test substance was dissolved in dimethyl sulfoxide and serially diluted with an assay buffer containing 0.1% bovine serum albumin (1×HBSS, 20 mM HEPES, pH 7.2) to a 4.8-fold concentration of the evaluation concentration. Allylisothiocyanate, which is a known TRPA1 activator, was dissolved in dimethyl sulfoxide to 100 mM, and further diluted 5-fold (100 μM) of the final concentration, like the test substance.
Calculation of Antagonist Activity
Under the test substance-free conditions, the maximum variation range of the fluorescence intensity before and after allylisothiocyanate stimulation was defined to be 100% activity rate, and the variation range before and after buffer stimulation was defined as 0% activity rate. The activity rate on addition of the test substance was determined, and the numerical value obtained by subtracting the activity rate from 100 was defined to be an inhibitory rate. IC50, which is the concentration of the test substance necessary for reaching the 50% inhibitory rate, was calculated from the sigmoid approximate curve by a spreadsheet software Excel-Fit.
Measurement of TRPA1 Antagonist Activity (2)
By a method similar to that in Experimental Example 1-1 except that the lot of human […] expression plasmid is different, the TRPA1 antagonist activity of the test substance was measured.

Chain of human TRPA1 (O75762 whole entry): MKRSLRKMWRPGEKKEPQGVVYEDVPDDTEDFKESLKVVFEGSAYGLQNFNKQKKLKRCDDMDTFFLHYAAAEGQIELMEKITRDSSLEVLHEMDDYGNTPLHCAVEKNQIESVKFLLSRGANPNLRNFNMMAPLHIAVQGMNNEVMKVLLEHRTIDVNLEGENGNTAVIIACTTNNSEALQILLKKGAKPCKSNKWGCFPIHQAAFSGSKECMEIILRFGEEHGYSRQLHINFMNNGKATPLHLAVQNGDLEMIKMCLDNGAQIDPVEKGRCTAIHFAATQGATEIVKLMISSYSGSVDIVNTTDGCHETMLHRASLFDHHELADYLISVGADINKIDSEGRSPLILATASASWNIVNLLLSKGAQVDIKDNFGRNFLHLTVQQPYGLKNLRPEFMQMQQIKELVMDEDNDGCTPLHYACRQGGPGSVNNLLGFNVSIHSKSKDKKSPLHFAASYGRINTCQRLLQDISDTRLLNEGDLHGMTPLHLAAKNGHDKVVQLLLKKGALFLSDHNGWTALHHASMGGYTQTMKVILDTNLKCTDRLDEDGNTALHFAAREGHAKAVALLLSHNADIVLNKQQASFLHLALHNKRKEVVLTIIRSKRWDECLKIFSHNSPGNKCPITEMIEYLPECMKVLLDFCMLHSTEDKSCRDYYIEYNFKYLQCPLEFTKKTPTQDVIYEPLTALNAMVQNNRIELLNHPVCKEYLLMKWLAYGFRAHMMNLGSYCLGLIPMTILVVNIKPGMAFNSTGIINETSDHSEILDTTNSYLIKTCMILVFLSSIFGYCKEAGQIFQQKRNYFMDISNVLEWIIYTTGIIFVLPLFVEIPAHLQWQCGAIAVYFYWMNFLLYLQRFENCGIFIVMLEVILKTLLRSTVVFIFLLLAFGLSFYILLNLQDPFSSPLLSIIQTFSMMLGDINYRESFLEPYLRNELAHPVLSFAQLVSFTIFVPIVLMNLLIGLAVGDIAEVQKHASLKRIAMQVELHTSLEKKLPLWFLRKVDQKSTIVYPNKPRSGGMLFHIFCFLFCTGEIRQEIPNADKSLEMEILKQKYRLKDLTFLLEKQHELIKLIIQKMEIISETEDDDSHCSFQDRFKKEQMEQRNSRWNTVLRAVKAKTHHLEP

Row | Structure (SMILES) | IC50
1 | O=C(NCc1ccnc(-c2ccc(C(F)(F)F)cc2O)c1)[C@@H]1CCN1S(=O)(=O)c1cc2cc(F)ccc2o1 [Example 383, (2S)-1-(5-fluorobenzofuran-2-yl)sulfonyl-N-[[2-[2-hydroxy-4-(trifluoromethyl)phenyl]-4-pyridyl]methyl]azetidine-2-carboxamide] | 9.7 nM
2 | C[C@@]1(C(=O)NCc2cc(-c3ccc(C(F)(F)F)cn3)ccn2)CCCN1S(=O)(=O)c1cc2cc(F)ccc2o1 [Example 341, (2S)-1-(5-fluorobenzofuran-2-yl)sulfonyl-2-methyl-N-[[4-[5-(trifluoromethyl)-2-pyridyl]-2-pyridyl]methyl]pyrrolidine-2-carboxamide] | 14 nM
3 | O=C(NCc1cc(-c2ncc(C(F)(F)F)cn2)ccn1)[C@@H]1CCCN1S(=O)(=O)c1cc2cnccc2o1 [Example 365, (2S)-1-furo[3,2-c]pyridin-2-ylsulfonyl-N-[[4-[5-(trifluoromethyl)pyrimidin-2-yl]-2-pyridyl]methyl]pyrrolidine-2-carboxamide] | 220 nM
4 | CN(C)c1nc(CNC(=O)[C@@H]2CCN2S(=O)(=O)c2cc3cc(F)ccc3o2)cc(-c2ccc(C(F)(F)F)nc2)n1 [Example 384, (2S)-N-[[2-(dimethylamino)-6-[6-(trifluoromethyl)-3-pyridyl]pyrimidin-4-yl]methyl]-1-(5-fluorobenzofuran-2-yl)sulfonyl-azetidine-2-carboxamide] | 13 nM
5 | CN(C)c1nc(CNC(=O)[C@@H]2CCCN2S(=O)(=O)c2cc3ccccc3o2)cc(-c2ccc(C(F)(F)F)cc2O)n1 [Example 376, (2S)-1-(benzofuran-2-ylsulfonyl)-N-[[2-(dimethylamino)-6-[2-hydroxy-4-(trifluoromethyl)phenyl]-pyrimidin-4-yl]methyl]pyrrolidine-2-carboxamide] | 21 nM
6 | C[C@H](NS(=O)(=O)c1cc2cc(F)ccc2o1)C(=O)NCc1ccc(O)c(-c2ccc(C(F)(F)F)nn2)c1 [Example 381] | 20 nM
7 | O=C(CN(Cc1ccccn1)S(=O)(=O)c1cc2cc(F)ccc2o1)NCc1cc(-c2ccc(C(F)(F)F)cc2)ncn1 [Example 353, 2-[(5-fluorobenzofuran-2-yl)sulfonyl-(2-pyridylmethyl)-amino]-N-[[6-[4-(trifluoromethyl)-phenyl]pyrimidin-4-yl]methyl]acetamide] | 300 nM
8 | CN(C)c1nc(CNC(=O)[C@@H]2CCCN2S(=O)(=O)c2cc3cnccc3o2)cc(-c2ccc(C(F)(F)F)cc2)n1 [Example 375, (2S)-N-[[2-(dimethylamino)-6-[4-(trifluoromethyl)phenyl]-pyrimidin-4-yl]methyl]-1-furo[3,2-c]pyridin-2-ylsulfonyl-pyrrolidine-2-carboxamide] | 13 nM
9 | C[C@H](NS(=O)(=O)c1cc2cc(F)ccc2o1)C(=O)NCc1cc(-c2ccc(C(F)(F)F)nc2)nc(N(C)C)n1 [Example 372, (2S)-N-[[2-(dimethylamino)-6-[6-(trifluoromethyl)-3-pyridyl]pyrimidin-4-yl]methyl]-2-[(5-fluorobenzofuran-2-yl)sulfonylamino]propanamide] | 27 nM
10 | O=C(CN(CC1CC1)S(=O)(=O)c1cc2cc(F)ccc2o1)NCc1cc(-c2ccc(C(F)(F)F)cn2)ccn1 [Example 349, 2-[cyclopropylmethyl-(5-fluorobenzofuran-2-yl)sulfonyl-amino]-N-[[4-[5-(trifluoromethyl)-2-pyridyl]-2-pyridyl]methyl]acetamide] | 43 nM
11 | CC(C)N(CC(=O)NCc1ccc(O)c(-c2ccc(C(F)(F)F)cn2)c1)S(=O)(=O)c1cc2cnccc2o1 [Example 374, 2-[furo[3,2-c]pyridin-2-ylsulfonyl(isopropyl)amino]-N-[[4-hydroxy-3-[5-(trifluoromethyl)-2-pyridyl]-phenyl]methyl]acetamide] | 15 nM
12 | O=C(NCc1cc(-c2ccc(C(F)(F)F)cc2)nc(N2CCC2)n1)[C@@H]1CCCN1S(=O)(=O)c1cc2ccccc2o1 [Example 328, (2S)-N-[[2-(azetidin-1-yl)-6-[4-(trifluoromethyl)phenyl]pyrimidin-4-yl]methyl]-1-(benzofuran-2-ylsulfonyl)pyrrolidine-2-carboxamide] | 16 nM
13 | O=C(CNS(=O)(=O)c1cc2cc(F)ccc2o1)NCc1cc(-c2ccc(OC(F)(F)F)cc2)ncn1 [Example 363, 2-[(5-fluorobenzofuran-2-yl)sulfonylamino]-N-[[6-[4-(trifluoromethoxy)phenyl]-pyrimidin-4-yl]methyl]acetamide] | 920 nM

Further lines, results first:

Row | IC50 | Structure (SMILES)
14 | 25 nM | O=C(NCc1ccnc(-c2ccc(C(F)(F)F)cc2O)c1)[C@@H]1CCN1S(=O)(=O)c1cc2ccccc2o1 [Example 411, (2S)-1-(benzofuran-2-ylsulfonyl)-N-[[2-[2-hydroxy-4-(trifluoromethyl)phenyl]-4-pyridyl]methyl]azetidine-2-carboxamide]
15 | 9.7 nM | O=C(NCc1ccc(O)c(-c2ccc(C(F)(F)F)cn2)c1)[C@@H]1CCN1S(=O)(=O)c1cc2cc(F)ccc2o1 [Example 404, (2S)-1-(5-fluorobenzofuran-2-yl)sulfonyl-N-[[4-hydroxy-3-[5-(trifluoromethyl)-2-pyridyl]phenyl]methyl]azetidine-2-carboxamide]
16 | 11 nM | O=C(NCc1cc(-c2cnc(C(F)(F)F)nc2)ccn1)[C@@H]1CCN1S(=O)(=O)c1cc2cc(F)ccc2o1 [Example 389, (2S)-1-(5-fluorobenzofuran-2-yl)sulfonyl-N-[[4-[2-(trifluoromethyl)pyrimidin-5-yl]-2-pyridyl]methyl]azetidine-2-carboxamide]
17 | 11 nM | O=C(NCc1cc(-c2ncc(C(F)(F)F)cn2)ccn1)[C@@H]1CCN1S(=O)(=O)c1cc2cc(F)ccc2o1 [Example 394, (2S)-1-(5-fluorobenzofuran-2-yl)sulfonyl-N-[[4-[5-(trifluoromethyl)pyrimidin-2-yl]-2-pyridyl]methyl]azetidine-2-carboxamide]
18 | 2.7 nM | O=C(NCc1cc(-c2ccc(C(F)(F)F)nc2)ncn1)[C@@H]1CCN1S(=O)(=O)c1cc2cc(F)ccc2o1 [Example 388, (2S)-1-(5-fluorobenzofuran-2-yl)sulfonyl-N-[[6-[6-(trifluoromethyl)-3-pyridyl]pyrimidin-4-yl]methyl]azetidine-2-carboxamide]
19 | 13 nM | O=C(NCc1cc(-c2ccc(C(F)(F)F)cn2)ccn1)[C@@H]1CCN1S(=O)(=O)c1cc2ccccc2o1 [Example 385, (2S)-1-(benzofuran-2-ylsulfonyl)-N-[[4-[5-(trifluoromethyl)-2-pyridyl]-2-pyridyl]methyl]azetidine-2-carboxamide]
20 | 4.1 nM | CCN(CC(=O)NCc1cc(-c2ccc(C(F)(F)F)cc2)ncn1)S(=O)(=O)c1cc2cc(F)ccc2o1 [Example 419, 2-[ethyl-(5-fluorobenzofuran-2-yl)sulfonyl-amino]-N-[[6-[4-(trifluoromethyl)phenyl]pyrimidin-4-yl]methyl]acetamide]
21 | 2.5 nM | O=C(NCc1cccc(-c2cnc(C(F)(F)F)cn2)c1)[C@@H]1CCCN1S(=O)(=O)c1cc2cc(F)ccc2o1 [Example 399, (2S)-1-(5-fluorobenzofuran-2-yl)sulfonyl-N-[[3-[5-(trifluoromethyl)pyrazin-2-yl]phenyl]methyl]pyrrolidine-2-carboxamide]
22 | 3.2 nM | O=C(NCc1cc(-c2ccc(OC(F)(F)F)cc2)ncn1)[C@@H]1CCN1S(=O)(=O)c1cc2cc(F)ccc2o1 [Example 395]
23 | 26 nM | O=C(NCc1cc(-c2ccc(C(F)(F)F)cn2)cnn1)[C@@H]1CCN1S(=O)(=O)c1cc2cc(F)ccc2o1 [Example 391, (2S)-1-(5-fluorobenzofuran-2-yl)sulfonyl-N-[[5-[5-(trifluoromethyl)-2-pyridyl]pyridazin-3-yl]methyl]azetidine-2-carboxamide]
24 | 2.7 nM | O=C(NCc1cc(-c2ccc(OC(F)(F)F)cc2)ncn1)[C@@H]1CCCN1S(=O)(=O)c1cc2cc(F)ccc2o1 [Example 406, (2S)-1-(5-fluorobenzofuran-2-yl)sulfonyl-N-[[6-[4-(trifluoromethoxy)phenyl]-pyrimidin-4-yl]methyl]pyrrolidine-2-carboxamide]
25 | 34 nM | C[C@H](NS(=O)(=O)c1cc2cnccc2o1)C(=O)NCc1cc(-c2ccc(C(F)(F)F)cc2O)ncn1 [Example 414, (2S)-2-(furo[3,2-c]pyridin-2-ylsulfonylamino)-N-[[6-[2-hydroxy-4-(trifluoromethyl)phenyl]pyrimidin-4-yl]methyl]propanamide]
